Where a name gives a salt, the structure may show the parent alone.

Broadly, the inhibition is the relative decrease from the control value, in per cent. Lower therefore signals a weak effect.

Chain of PDE4B (Q07343 whole entry, species assumed): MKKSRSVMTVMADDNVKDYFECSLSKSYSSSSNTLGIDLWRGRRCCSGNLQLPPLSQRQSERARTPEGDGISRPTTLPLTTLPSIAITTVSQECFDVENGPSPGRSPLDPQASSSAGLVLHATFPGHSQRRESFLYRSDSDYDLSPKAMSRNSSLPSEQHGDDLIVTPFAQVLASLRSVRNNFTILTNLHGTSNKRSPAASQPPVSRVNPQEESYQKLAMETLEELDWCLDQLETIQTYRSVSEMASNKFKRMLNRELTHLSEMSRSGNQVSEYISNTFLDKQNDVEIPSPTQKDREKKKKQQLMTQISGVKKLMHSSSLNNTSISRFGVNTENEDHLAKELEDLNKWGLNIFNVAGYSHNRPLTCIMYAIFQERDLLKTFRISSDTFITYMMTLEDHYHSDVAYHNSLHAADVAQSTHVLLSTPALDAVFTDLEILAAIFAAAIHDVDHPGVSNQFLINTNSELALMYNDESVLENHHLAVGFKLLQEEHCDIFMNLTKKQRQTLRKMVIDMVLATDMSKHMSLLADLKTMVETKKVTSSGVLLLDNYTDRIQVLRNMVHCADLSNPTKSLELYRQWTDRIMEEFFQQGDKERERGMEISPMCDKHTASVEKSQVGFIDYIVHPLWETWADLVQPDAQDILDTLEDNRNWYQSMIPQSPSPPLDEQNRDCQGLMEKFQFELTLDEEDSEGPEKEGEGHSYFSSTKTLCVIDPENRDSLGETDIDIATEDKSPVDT

For the first test, the target named is PDE4B (Homo sapiens, UniProt Q07343). The test can be described thus: Scintillation Proximity Assay (SPA) of PDE4B enzyme activity ([H3]-cAMP cleavage). The test is classed as biochemical. The following applies: test substance 1 μM; one-hour incubation of [H3]-cAMP with PDE4B enzyme at 30° C. On the procedure:
The inhibitions (in %) at 1 μM of the individual Example substances are given in the following Table of Examples and were determined as follows:
The Scintillation Proximity Assay (SPA) (GE Healthcare, No. TRKQ7090) was carried out by using the different affinities of cyclic 3′-5′-adenosinemonophosphate (cAMP, low affinity) and linear 5′-adenosinemonophosphate (AMP, high affinity) for yttrium silicate scintillator beads. The cAMP specific phosphodiesterase (PDE) PDE4B cleaves the 3′-phosphoester bond of tritium-labelled [H3]-cAMP to form [H3]-5′-AMP. This [H3]-AMP accumulates on the scintillator beads because of its higher affinity for them and causes scintillation events (flashes of light) which are measured in a Wallac Microbeta Scintillation Counter.
The experiment starts with a one-hour incubation of [H3]-cAMP with the PDE4B enzyme in assay buffer at 30° C., in each case once with the Example substance to be tested (in a concentration of 1 μM) and once without the Example substance to be tested.
After this incubation, the reaction is stopped by the addition of the beads. The beads have an opportunity to settle in the next 45 minutes, then the measurement is carried out in the Scintillation Counter. If the substance is capable of inhibiting the enzymatic activity of the PDE4B, less [H3]-AMP is produced during the incubation phase and fewer scintillation events can be measured.
A general note: SPA uses beads or plates that emit light when radiolabelled molecules are held near them.
Consider `[O-][S+]1CCc2nc(N3CCC(c4ccc(Cl)cc4)CC3)nc(NC3CCOCC3)c21` (stereo not drawn) [Example 6, {2-[4-(4-chlorophenyl)-piperidin-1-yl]-5-oxo-6,7-dihydro-5H-5λ^4-thieno[3,2-d]pyrimidin-4-yl}-(tetrahydropyran-4-yl)-amine], for which at 1 µM the inhibition was 94%.
Regarding `[O-][S+]1CCc2nc(N3CCC(c4cccc(O)c4)CC3)nc(Nc3cccc(F)c3)c21` (stereo not drawn) [Example 76], the inhibition at 1 µM was found to be 97%.
Still for that read-out and setting: then `CCOC(=O)c1ccc2c(C3CCN(c4nc5c(c(NC6(CO)CC6)n4)[S+]([O-])CC5)CC3)c[nH]c2c1` (stereo not drawn) [Example 29, ethyl 3-{1-[4-(1-hydroxymethylcyclopropylamino)-5-oxo-6,7-dihydro-5H-5λ^4-thieno[3,2-d]pyrimidin-2-yl]-piperidin-4-yl}-1H-indole-6-carboxylate], with 97%; and `COC(=O)c1ccc(C2CCN(c3nc4c(c(NC5CCOCC5)n3)[S+]([O-])CC4)CC2)cc1` (stereo not drawn) [Example 119], with 95%; and `[O-][S+]1CCc2nc(N3CCC(c4nc5cc(Cl)ccc5s4)CC3)nc(Nc3cccc(F)c3)c21` (stereo not drawn) [Example 134], with 95%.
For `CC(C)[C@H](CO)Nc1nc(N2CCC(c3cccc(Cl)c3)CC2)nc2c1[S+]([O-])CC2` (stereo partly drawn) [Example 24], testing at 1 µM gave an inhibition of 94%.
On the same count and under the same terms, in the case of `[O-][S+]1CCc2nc(N3CCC(c4noc5cc(F)ccc45)CC3)nc(NC3(CO)CC3)c21` (stereo not drawn) [Example 105] it was 95%; in that of `COc1ccc(C2CCN(c3nc4c(c(Nc5cccc(F)c5)n3)[S+]([O-])CC4)CC2)cc1` (stereo not drawn) [Example 133], 95%.
In turn, `[O-][S+]1CCc2nc(N3CCC(c4nc(-c5ccncc5)no4)CC3)nc(Nc3cccc(F)c3)c21` (stereo not drawn) [Example 147, (3-Fluorophenyl)-{5-Oxo-2-[4-(3-Pyridin-4-Yl-[1,2,4]Oxadiazol-5-Yl)-Piperidin-1-Yl]-6,7-Dihydro-5H-5λ^4-Thieno[3,2-d]Pyrimidin-4-Yl}-Amine Trifluoroacetate] came in with an inhibition at 1 µM of 95%.
The same measure, in the same setting: then `O=C1Nc2ccccc2C2(CCN(c3nc4c(c(Nc5cccc(F)c5)n3)[S+]([O-])CC4)CC2)O1` (stereo not drawn) [Example 80], with 94%.
The same measure, in the same setting: then `[O-][S+]1CCc2nc(N3CCC(O)(c4cc(F)cc(F)c4)CC3)nc(Nc3cccc(F)c3)c21` (stereo not drawn) [Example 77], with 96%; and `[O-][S+]1CCc2nc(N3CCC(c4c[nH]c5ccccc45)CC3)nc(NC3CCOCC3)c21` (stereo not drawn) [Example 56], with 96%.
Same read-out and setting: then `[O-][S+]1CCc2nc(N3CCC(c4cccc(F)c4)CC3)nc(NC3CCOCC3)c21` (stereo not drawn) [Example 86], with 94%.
`CC(C)[C@H](CO)Nc1nc(N2CCC(C#N)(c3ccccc3)CC2)nc2c1[S+]([O-])CC2` (stereo partly drawn) [Example 25] registered an inhibition at 1 µM of 90%.
Same read-out and setting: in the case of `[O-][S+]1CCc2nc(N3CCC(c4noc5ccc(F)cc45)CC3)nc(Nc3cccc(F)c3)c21` (stereo not drawn) [Example 137] it was 95%; in that of `CN1C[C@@H](Nc2nc(N3CCC(c4nc5ccccc5o4)CC3)nc3c2[S+]([O-])CC3)CCC1=O` (stereo partly drawn) [Example 100, (S)-5-[2-(4-Benzoxazol-2-Yl-Piperidin-1-Yl)-5-Oxo-6,7-Dihydro-5H-5λ^4-Thieno[3,2-d]Pyrimidin-4-Ylamino]-1-Methylpiperidin-2-One], 97%; in that of `[O-][S+]1CCc2nc(N3CCC(c4nnc5ccccn45)CC3)nc(NC3(CO)CC3)c21` (stereo not drawn) [Example 108], 88%.
The same measure, in the same setting: then `COC(=O)c1cccc(C2CCN(c3nc4c(c(N[C@@H](CO)C(C)C)n3)[S+]([O-])CC4)CC2)c1` (stereo partly drawn) [Example 151], with 94%; and `CC(C)[C@H](CO)Nc1nc(N2CCC(c3noc4ccc(F)cc34)CC2)nc2c1[S+]([O-])CC2` (stereo partly drawn) [Example 153], with 95%.
The same measure, in the same setting: then `[O-][S+]1CCc2nc(N3CCC(c4nnc(-c5ccc(F)cc5)o4)CC3)nc(NC3(CO)CC3)c21` (stereo not drawn) [Example 112], with 95%; and `[O-][S+]1CCc2nc(N3CCC(c4c[nH]cn4)CC3)nc(NC3CCOCC3)c21` (stereo not drawn) [Example 57], with 86%; and `CN1C[C@@H](Nc2nc(N3CCC(c4ccc(C#N)cc4)CC3)nc3c2[S+]([O-])CC3)CCC1=O` (stereo partly drawn) [Example 49], with 96%.
With `[O-][S+]1CCc2nc(N3CCC4(CC3)OCc3ccccc34)nc(NC3(CO)CC3)c21` (stereo not drawn) [Example 109], testing at 1 µM gave an inhibition of 75%.
The same measure, in the same setting: in the case of `CC(C)[C@H](CO)Nc1nc(N2CCC(c3nnc4ccccn34)CC2)nc2c1[S+]([O-])CC2` (stereo partly drawn) [Example 155] it was 83%.

Staying with this test, now noted: test substance 1 μM; one-hour incubation with [H3]-cAMP at 30° C.
Take `CN(C(=O)c1cccc(C2CCN(c3nc4c(c(NC5CCOCC5)n3)[S+]([O-])CC4)CC2)c1)C1CC1` (stereo not drawn) [Example 249, N-cyclopropyl-N-methyl-3-{1-[5-oxo-4-(tetrahydropyran-4-ylamino)-6,7-dihydro-5H-5λ^4-thieno[3,2-d]pyrimidin-2-yl]-piperidin-4-yl}-benzamide]: the inhibition at 1 µM is 93%.
In turn, `CN1C[C@@H](Nc2nc(N3CCC(C(=O)N4CCOCC4)(c4ccccc4)CC3)nc3c2[S+]([O-])CC3)CCC1=O` (stereo partly drawn) [Example 252, 1-Methyl-5-{2-[4-(Morpholine-4-Carbonyl)-4-Phenyl Piperidin-1-Yl]-5-Oxo-6,7-Dihydro-5H-5λ^4-Thieno[3,2-d]Pyrimidin-4-Ylamino}-Piperidin-2-One] yielded an inhibition at 1 µM of 92%.
As for `CN1C[C@@H](Nc2nc(N3CCC(Oc4ccc(Cl)cc4)CC3)nc3c2[S+]([O-])CC3)CCC1=O` (stereo partly drawn) [Example 265], the inhibition at 1 µM was 89%.
The same measure, in the same setting: then `[O-][S+]1CCc2nc(N3CCC(c4nc5ccc(Cl)cc5[nH]4)CC3)nc(NC3CCOCC3)c21` (stereo not drawn) [Example 191], with 96%; and `[O-][S+]1CCc2nc(N3CCC(O)(c4ccc(Cl)cc4)CC3)nc(NC3CCOCC3)c21` (stereo not drawn) [Example 288], with 89%.
`COC1(c2ccc(Cl)cc2)CCN(c2nc3c(c(Nc4cccc(F)c4)n2)[S+]([O-])CC3)CC1` (stereo not drawn) [Example 316] displayed an inhibition at 1 µM of 92%.
As to `COC1CCN(c2nc3c(c(NC4CCOCC4)n2)[S+]([O-])CC3)CC1` (stereo not drawn) [Example 170], the inhibition at 1 µM was 77%.
On the same count and under the same terms, then `Cc1nc(C2CCN(c3nc4c(c(NC5CCOCC5)n3)[S+]([O-])CC4)CC2)oc1-c1ccc(Cl)cc1` (stereo not drawn) [Example 282], with 87%; and `CC(C)(NC(=O)c1cccc(C2CCN(c3nc4c(c(NC5CCOCC5)n3)[S+]([O-])CC4)CC2)c1)c1ccncc1` (stereo not drawn) [Example 255], with 93%; and `[O-][S+]1CCc2nc(N3CCC(c4nc5cccnc5[nH]4)CC3)nc(NC3CCOCC3)c21` (stereo not drawn) [Example 207], with 95%.
Still for that read-out and setting: then `Cc1nn(C)c(C)c1CNC(=O)c1ccc(OC2CCN(c3nc4c(c(NC5CCOCC5)n3)[S+]([O-])CC4)CC2)cc1` (stereo not drawn) [Example 243], with 94%; and `[O-][S+]1CCc2nc(N3CCC(c4nc(-c5ccccc5)c(-c5ccccc5)o4)CC3)nc(NC3CCOCC3)c21` (stereo not drawn) [Example 279], with 95%.
The same measure, in the same setting: in the case of `COCC(=O)N(C)CC1(c2ccccc2)CCN(c2nc3c(c(NC4CCOCC4)n2)[S+]([O-])CC3)CC1` (stereo not drawn) [Example 323, 2-methoxy-N-methyl-N-{1-[5-oxo-4-(tetrahydropyran-4-ylamino)-6,7-dihydro-5H-5λ^4-thieno[3,2-d]pyrimidin-2-yl]-4-phenylpiperidin-4-ylmethyl}-acetamide] it was 94%; in that of `[O-][S+]1CCc2nc(N3CCC(c4n[nH]c5ccccc45)CC3)nc(NC3CCOCC3)c21` (stereo not drawn) [Example 221], 94%; in that of `Cc1oc(C2CCN(c3nc4c(c(N[C@H]5CCC(=O)N(C)C5)n3)[S+]([O-])CC4)CC2)nc1-c1ccccc1` (stereo partly drawn) [Example 275, 1-methyl-5-{2-[4-(5-methyl-4-phenyloxazol-2-yl)-piperidin-1-yl]-5-oxo-6,7-dihydro-5H-5λ^4-thieno[3,2-d]pyrimidin-4-ylamino}-piperidin-2-one], 95%.
For the compound `CC(C)[C@H](CO)Nc1nc(N2CCC(CO)(c3ccc(Cl)cc3)CC2)nc2c1[S+]([O-])CC2` (stereo partly drawn) [Example 300], at 1 µM the inhibition was 86%.
`[O-][S+]1CCc2nc(N3CCC(Oc4ccc5c(c4)OCO5)CC3)nc(NC3CCOCC3)c21` (stereo not drawn) [Example 174] gave an inhibition at 1 µM of 92%.
Still for that read-out and setting: in the case of `CC(=O)N(C)CC1(c2ccccc2)CCN(c2nc3c(c(N[C@H]4CCC(=O)N(C)C4)n2)[S+]([O-])CC3)CC1` (stereo partly drawn) [Example 274, N-methyl-N-{1-[4-(1-methyl-6-oxo-piperidin-3-ylamino)-5-oxo-6,7-dihydro-5H-5λ^4-thieno[3,2-d]pyrimidin-2-yl]-4-phenylpiperidin-4-ylmethyl}-acetamide] it was 94%; in that of `[O-][S+]1CCc2nc(N3CCC(c4nc(-c5ccccc5)c(-c5ccccc5)o4)CC3)nc(NC3(CO)CC3)c21` (stereo not drawn) [Example 280], 95%.
Still for that read-out and setting: then `Cc1cn(C)nc1CN(C)C(=O)c1ccc(OC2CCN(c3nc4c(c(NC5CCOCC5)n3)[S+]([O-])CC4)CC2)cc1` (stereo not drawn) [Example 239], with 94%; and `Cc1nn(C)c(C)c1CNC(=O)c1cccc(C2CCN(c3nc4c(c(NC5CCOCC5)n3)[S+]([O-])CC4)CC2)c1` (stereo not drawn) [Example 250], with 92%.

Values taken from patent publication US8754073B2, “Substituted piperazino-dihydrothienopyrimidines” (Boehringer Ingelheim International GmbH, priority 2007, dated 2014).
